Holding throughout (assay): growth of human tumour cells (NCI), 48 h
Test [1] concerns SK-OV-3 ovarian.
In test [2] the test system is OVCAR-3 ovarian.
For test [3], the system named is SF-539 CNS.
The subject of test [4] is SW-620 colon.
Test [5] has as its system SNB-19 CNS.
Test [6] concerns SK-MEL-2 melanoma.
The subject of test [7] is COLO 205 colon.
In test [8] the test system is HOP-92 NSCLC.
For test [9], the system named is DMS 273 small cell lung.
Test [10] has as its system ACHN renal.

For 23 molecules, TGI and GI50 results are on record in PubChem BioAssay (NCI).

SMILES strings stand for the structures. Several values for one entry are separate records, joined by “and”; a condition that tells them apart may be missing. Equal values may be shown once.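 A five-concentration, 48-hour dose response in 96-well plates underlies each endpoint, interpolated linearly between surrounding concentrations. GI50: concentration for 50% inhibition of growth. At the TGI there is no net growth.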

Regarding `CC(=O)O/C(C)=C\C(=O)O/N=C(\N)c1ccc(C)cc1`, the TGI in [1] was above 100 µM; in [2] it was above 100 µM; in test [3], 57.4 µM; in [4], above 100 µM; in [5], above 100 µM; in test [6], 72.3 µM. Further, the TGI in test [7], in test [8], in test [9] and in test [10] was above 100 µM in each case.
On to `COc1cccc2c1C1=CC(=O)CCC1C(C)(C)O2` (stereo unspecified), for which the TGI in [1] was above 100 µM; in test [2], above 100 µM; in test [3], above 100 µM; in test [4], 27.3 µM; in test [5] it was above 100 µM; in test [6], above 100 µM. The TGI in test [7], in test [8], in test [9] and in test [10] was above 100 µM throughout.
In the case of `COc1ccc(N=Cc2ccc(N(CCC#N)CCC#N)cc2)cc1`, the TGI in [1] is above 100 µM; in test [2] it was above 100 µM; in test [3] it was 78.7 µM; in test [4], above 100 µM; in test [5], above 100 µM; in test [6], above 84.2 µM. Further, the TGI in test [7], in [8], in test [9] and in test [10] was above 100 µM in each case.
Take `CCCCCCCCCCCCC(SCCNC(=O)CCNC(=O)C(O)C(C)(C)COP(=O)(O)OP(=O)(O)OCC1OC(n2cnc3c(N)ncnc32)C(O)C1OP(=O)(O)O)C(=O)NCC(N)=O` (stereo unspecified): the TGI in [1] was 98.2 µM; in [2] it was above 100 µM; in test [3], above 100 µM; in test [4] it was above 100 µM; in [5] it was above 100 µM; in test [6] it was above 100 µM. Also, the TGI in test [7], in [8], in test [9] and in [10] was above 100 µM throughout.
Regarding `CCCCCCCCCCCC(=O)C1=C(O)C(O)CCC1=O` (stereo unspecified), the TGI is 67.2 µM in test [1]; 38.3 µM in test [2]; 45.4 µM in test [3]; 60 µM in [4]; 49.4 µM in [5]; 25 µM in test [6]. For the same molecule, the TGI in test [7] is 28.9 µM; in test [8], 48.3 µM; in test [9], 21.3 µM; in [10], 56.9 µM.
As to `CN(C)CCNC(=O)c1cc([N+](=O)[O-])cc2ccc(-c3ccccc3)nc12`, the TGI was 25.5 µM in test [1]; 54.3 µM in test [2]; 27.2 µM in [3]; above 38.7 µM in test [4]; 35.5 µM in [5]; 28.7 µM in test [6]. In addition, the TGI in test [7] was determined as 21.6 µM; in [8], 27.4 µM; in test [9], 31.7 µM; in [10], 28.5 µM.
Take `Cc1ccc(C)c(NC(=O)/C(=N\NC(N)=S)C(C#N)c2ccccc2)c1` (stereo unspecified): the TGI in test [1], in test [2], in test [3], in test [4], in test [5] and in [6] was above 100 µM each time. Further, the TGI in [7], in test [8], in test [9] and in test [10] was above 100 µM in each case.
On to `CCOC(=O)c1c2ccc(/C=C/C(=O)OC)ccc-2c(C(=O)OCC)c1N`, for which the TGI in [1], in test [2], in test [3], in [4], in test [5] and in test [6] was above 100 µM in each case. The TGI in test [7], in [8], in [9] and in test [10] was above 100 µM in each case.
For the molecule `Cn1nnnc1[N-]Cc1ccccc1.[Au+].c1ccc([PH+](c2ccccc2)c2ccccc2)cc1`, the GI50 in test [1] is 16.6 µM; in test [2], 2.47 µM; in test [3], 8.93 µM; in test [4], 2.19 µM; in test [5] it was 3.61 µM; in [6], 2.98 µM. The GI50 in test [7] was 2.29 µM; in [8] it was 2.44 µM; in test [9], 11.1 µM; in test [10] it was 4.29 µM. Further, the TGI in test [1] worked out at 30.3 µM; in [2], 5.2 µM; in test [3], 23.2 µM; in test [4], 4.92 µM; in [5] it was 13.1 µM; in test [6], 9.45 µM. Also, the TGI in test [7] was 5.81 µM; in test [8], 4.68 µM; in test [9], above 100 µM; in test [10], 10.6 µM.
Turning to `CC1=C(N2CC2)C(=O)c2nc3n(c2C1=O)CCC3O` (stereo unspecified), the TGI came out at 0.859 µM in [1]; 0.763 µM in test [2]; 0.669 µM in test [3]; 0.726 µM in test [4]; 0.97 µM in test [5]; 1.4 µM in [6]. Also, the TGI in test [7] was determined as 1.33 µM; in test [8], 5.72 µM; in [9], 1.68 µM; in test [10], 1.61 µM.
For the molecule `Cc1cc2occ(C)c(=O)c2c2c1OC(C)(C)S2`, the TGI in [1], in test [2], in test [3], in test [4], in test [5] and in test [6] was above 100 µM in each case. Moreover, the TGI in test [7], in test [8], in test [9] and in [10] was above 100 µM each time.
With `CCCN(CCCCC(NC(C)=O)C(=O)NCc1ccccc1)C(=O)NC` (stereo unspecified), the TGI in test [1], in test [2], in test [3], in test [4], in test [5] and in [6] was above 100 µM throughout. Further, the TGI in test [7], in [8], in test [9] and in test [10] was above 100 µM each time.
Take `CCc1cccc(C)c1NC(=O)CC1Sc2ccccc2NC1=O` (stereo unspecified): the TGI in [1], in [2], in test [3], in test [4], in test [5] and in test [6] was above 100 µM in each case. In addition, the TGI is above 100 µM in test [7], 99.7 µM in [8], above 100 µM in test [9] and above 100 µM in [10].
In the case of `CC(SC1=CC(=O)c2c(O)ccc(O)c2C1=O)C(=O)O` (stereo unspecified), the TGI is above 100 µM in [1]; 53.1 µM in [2]; above 100 µM in test [3]; above 55.6 µM in test [4]; above 100 µM in test [5]; above 100 µM in [6]. Besides, the TGI was above 60.3 µM in test [7], above 83.1 µM in test [8], above 100 µM in test [9] and above 64.1 µM in [10].
Regarding `[Cl][Sn]([c]1ccccc1)[c]1ccccc1`, the GI50 in test [1] was 18.4 µM; in test [2], 11.4 µM; in test [3], 9.43 µM; in [4], 1.95 µM; in test [5], 11.6 µM; in test [6], 2.65 µM. Also, the GI50 was 7.45 µM in [7], 3.61 µM in [8], 10 µM in [9] and 11.9 µM in test [10]. In addition, the TGI in test [1] is 32.7 µM; in [2], 24.1 µM; in test [3], 22.6 µM; in [4], 4.49 µM; in test [5] it was 23.8 µM; in test [6], 11.9 µM. In addition, the TGI in test [7] was found to be 38.2 µM; in test [8], 8.69 µM; in test [9] it was 34 µM; in test [10], 24.2 µM.
As for `Cn1c(=O)c2c(nc3n2CCC(=O)N3)n(C)c1=O`, the TGI in test [1], in test [3], in test [4], in test [5], in [6] and in test [7] was above 100 µM each time. For the same molecule, the TGI in test [8], in [9] and in [10] was above 100 µM throughout.
Turning to `CCCc1ccc(N=Cc2cc(OC)c(OC)c(OC)c2)cc1`, the TGI in test [1], in [2], in [3], in [4], in [5] and in [6] was above 100 µM in each case. The TGI was above 31.6 µM in [7], above 100 µM in test [8], above 100 µM in test [9] and above 100 µM in test [10].
Take `Nc1ccc2c(c1)[O][Sn]([c]1ccccc1)([c]1ccccc1)[O]C2=O`: the GI50 was 14.7 µM in [1]; 6.79 µM in [2]; 9.5 µM in [3]; 2.93 µM in test [4]; 17.3 µM in test [5]; 6.19 µM in [6]. Besides, the GI50 in test [7] was 6.58 µM; in test [8] it was 2.59 µM; in [9] it was 16.6 µM; in test [10], 11.9 µM. Also, the TGI in [1] is 43.8 µM; in [2] it was 15.9 µM; in test [3], 18.8 µM; in test [4], 8.35 µM; in [5], 31.3 µM; in test [6] it was 17.6 µM. Besides, the TGI in test [7] was 13.2 µM; in test [8], 7.11 µM; in [9], 31.1 µM; in [10], 25.4 µM.
With `CCCCS(=N)(=O)CC[C@H](N)C(=O)O` (stereo partly specified), the GI50 in test [1] is above 10000 µM; in test [2], above 10000 µM; in [3] it was above 10000 µM; in [4], 3710 µM; in [5], above 10000 µM; in test [6], above 7640 µM. The GI50 is above 10000 µM in test [7], 945 µM in [8] and above 10000 µM in test [10]. Moreover, the TGI in [1] is above 10000 µM; in test [2], above 10000 µM; in [3] it was 5000 µM and > 10000 µM; in test [4], above 10000 µM; in [5] it was above 10000 µM; in test [6] it was above 10000 µM. In addition, the TGI in test [7] was above 10000 µM; in [9] it was above 5000 µM; in test [10] it was above 10000 µM.
Turning to `Cc1ccc(-n2c(C)nc3c2C(=O)c2ccccc2C3=O)cc1`, the TGI in test [1] was above 100 µM; in test [2], 73.2 µM; in [3], 86.1 µM; in test [4], above 100 µM; in test [5], above 100 µM; in [6] it was above 100 µM. In addition, the TGI in test [7] is 41.8 µM; in [8] it was above 100 µM; in [9] it was above 100 µM; in test [10] it was above 100 µM.
In the case of `CC[C@@]1(OC(=O)CCC(=O)O)C(=O)OCc2c1cc1n(c2=O)Cc2cc3ccccc3nc2-1`, the TGI in [1] is 14.2 µM; in [2], 3.88 µM; in test [3], 0.238 µM; in test [4], 16.8 µM; in [5] it was above 43 µM; in test [6], 4.96 µM. The TGI worked out at 8.49 µM in test [7], 6.08 µM in [8], 0.676 µM in test [9] and 0.424 µM in [10].
As for `c1ccc(COc2ccc3[nH]c4c(ncc5[nH]c6ccccc6c54)c3c2)cc1`, the TGI in [1] stood at 32.9 µM; in test [2], 30.3 µM; in test [3], 29.4 µM; in test [4], 32.3 µM; in [5], 33.5 µM; in test [6], 30.8 µM. Further, the TGI amounted to 47.1 µM in [7], 29.9 µM in test [8], 30.4 µM in test [9] and 31.6 µM in test [10].
Take `O=C(O)c1[nH]c(C(=O)O)c(CC(F)(F)C(F)(F)C(F)(F)F)c1CC(F)(F)C(F)(F)C(F)(F)F`: the TGI in test [1], in test [2], in test [3], in test [4], in test [5] and in test [7] was above 100 µM in each case. For the same molecule, the TGI in test [8], in test [9] and in [10] was above 100 µM each time.
